Experimental data from US9040524B2, “Antifungal 5,6-dihydro-4H-pyrrolo[1,2-a][1,4]-benzodiazepines and 6H-pyrrolo[1,2-a][1,4]benzodiazepines substituted with bicycle benzene derivatives” (JANSSEN PHARMACEUTICA NV, priority 2010, dated 2015).

Tests used:
[1] = tested on: Candida parapsilosis; assay: Antifungal activity in vitro, resazurin growth inhibition screen: Candida parapsilosis; format: cell-based; conditions: Lodderomyces parapsilosis; Candida parapsilosis B66126; read-out: Inf. D pIC50 (converted)
Summary of the method: (§1)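 Compound serial dilutions (2- or 4-fold), highest in-test concentration 64 μM, in U-bottom 96-well plates. Each well inoculated with 10^3 cfu fungus in RPMI-MOPS medium; growth read by resazurin against drug-free (100%) and medium-only (0%) controls.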

[2] = tested on: Aspergillus fumigatus; assay: Antifungal activity in vitro, resazurin growth inhibition screen: Aspergillus fumigatus; format: cell-based; conditions: Aspergillus fumigatus B42928; read-out: Inf. E pIC50 (converted)
Summary of the method: as §1

[3] = tested on: Trichophyton mentagrophytes; assay: Antifungal activity in vitro, resazurin growth inhibition screen: Trichophyton mentagrophytes; format: cell-based; conditions: Trichophyton mentagrophytes B70554; read-out: Inf. G pIC50 (converted)
Summary of the method: as §1

[4] = tested on: Sporothrix schenkii; assay: Antifungal activity in vitro, resazurin growth inhibition screen: Sporothrix schenkii; format: cell-based; conditions: Sporothrix schenkii B62482; read-out: Inf. A pIC50 (converted)
Summary of the method: as §1

[5] = tested on: Rhizopus oryzae; assay: Antifungal activity in vitro, resazurin growth inhibition screen: Rhizopus oryzae; format: cell-based; conditions: Rhizopus arrhizus; Rhizopus oryzae IHEM5223; read-out: Inf. J pIC50 (converted)
Description: (§2) The standard susceptibility screen was performed in 96-well plates (U-bottom, Greiner Bio-One). Serial dilutions (2-fold or 4-fold) of 20 mM compound stock solutions were made in 100% DMSO, followed by an intermediate dilution step in water. These serial dilutions (10 μl) were then spotted onto test-plates that could be stored in the dark at 4° C. for a maximum period of 2 weeks. An adequate broad dose-range was included with 64 μM as the highest in-test concentration. […] The different fungal species/isolates (Table 3a) were cryopreserved and 1/1000 diluted in medium just prior to use. A standard inoculum of 200 μl containing 10^3 colony-forming unit (cfu) was then added to each well. A positive control (100% growth=fungal culture without antifungal) and a negative control (0% growth=RPMI-MOPS medium) were included on each plate.

[6] = tested on: Trichophyton rubrum; assay: Antifungal activity in vitro, resazurin growth inhibition screen: Trichophyton rubrum; format: cell-based; conditions: Trichophyton rubrum B68183; read-out: Inf. C pIC50 (converted)
Summary of the method: as §1

[7] = tested on: Microsporum canis; assay: Antifungal activity in vitro, resazurin growth inhibition screen: Microsporum canis; format: cell-based; conditions: Microsporum canis B68128; read-out: Inf. B pIC50 (converted)
Summary of the method: as §1

[8] = tested on: Cryptococcus neoformans; assay: Antifungal activity in vitro, resazurin growth inhibition screen: Cryptococcus neoformans; format: cell-based; conditions: Cryptococcus neoformans B66663; read-out: Inf. F pIC50 (converted)
Summary of the method: as §1

[9] = tested on: Rhizomucor miehei; assay: Antifungal activity in vitro, resazurin growth inhibition screen: Rhizomucor miehei; format: cell-based; conditions: Rhizomucor miehei IHEM13391; read-out: Inf. K pIC50 (converted)
Description: as §2

[10] = tested on: Scedosporium apiospermum; assay: Antifungal activity in vitro, resazurin growth inhibition screen: Scedosporium apiospermum; format: cell-based; conditions: Scedosporium apiospermum IHEM3817; read-out: Inf. H pIC50 (converted)
Description: as §2

[11] = tested on: Scedosporium prolificans; assay: Antifungal activity in vitro, resazurin growth inhibition screen: Scedosporium prolificans; format: cell-based; conditions: Lomentospora prolificans; Scedosporium prolificans IHEM21157; read-out: Inf. I pIC50 (converted)
Description: as §2

IC50 [1] [nM] | IC50 [2] [nM] | IC50 [3] [nM] | IC50 [4] [nM] | IC50 [5] [nM] | IC50 [6] [nM] | IC50 [7] [nM] | IC50 [8] [nM] | IC50 [9] [nM] | melting point | IC50 [10] [nM] | IC50 [11] [nM] | Structure (SMILES)
> 64600 | 135 | 324 | 2140 | 49000 | 204 | 166 | 417 | 6920 | 209.8 to 210.7 °C | 5890 | 9330 | O=C1CCCc2cc(C3=NCc4c(Cl)cccc4-n4cccc43)ccc21 [Compound 58, 6-(7-chloro-6H-pyrrolo[1,2-a][1,4]benzodiazepin-4-yl)-3,4-dihydro-1(2H)-naphthalenone]
20900 | 2000 | 240 | 12900 | > 64600 | 132 | 676 | 50100 | > 64600 | 180.5 to 181.2 °C | 2820 | 1200 | Clc1cccc2c1CN=C(c1ccc3c(c1)OCC3)c1cccn1-2 [Compound 36, 7-chloro-4-(2,3-dihydro-6-benzofuranyl)-6H-pyrrolo[1,2-a][1,4]benzodiazepine]
708 | 129 | 380 | 1050 | 1200 | 123 | 129 | 95.5 | 468 | 199.7 to 201.2 °C | 229 | 708 | FC1(F)CCc2cc(C3=NCc4c(Cl)cccc4-n4cccc43)ccc2O1 [Compound 69, 7-chloro-4-(2,2-difluoro-3,4-dihydro-2H-1-benzopyran-6-yl)-6H-pyrrolo[1,2-a]-[1,4]benzodiazepine]
> 64600 | 417 | 871 | 53700 | > 64600 | 447 | 537 | 407 | > 64600 | 170.2 to 171.8 °C | 170 | 2570 | Fc1cc(Cl)c2c(c1)-n1cccc1C(c1ccc3c(c1)CCC3(F)F)=NC2 [Compound 88, 7-chloro-4-(1,1-difluoro-2,3-dihydro-1H-inden-5-yl)-9-fluoro-6H-pyrrolo[1,2-a]-[1,4]benzodiazepine]
> 64600 | > 64600 | > 64600 | > 64600 |  | > 64600 | > 64600 | > 64600 |  | 107.9 °C (dec.) |  |  | O=C1OCc2ccc(C3=NCc4c(Cl)cccc4-n4cccc43)cc21 [Compound 62, 6-(7-chloro-6H-pyrrolo[1,2-a][1,4]benzodiazepin-4-yl)-1(3H)-isobenzofuranone]
759 | > 64600 | > 64600 | > 64600 |  | > 64600 | 64600 | 955 |  | 158.9 to 159.3 °C |  |  | Fc1cccc2c1CN=C(c1ccc3c(c1)CCC(F)(F)O3)c1cccn1-2 [Compound 70, 4-(2,2-difluoro-3,4-dihydro-2H-1-benzopyran-6-yl)-7-fluoro-6H-pyrrolo[1,2-a]-[1,4]benzodiazepine]
339 | 269 |  | 2000 | > 11200 | 70.8 | 129 | 380 | 13800 | 181.3 to 182.7 °C | 8910 | 851 | Clc1cccc2c1CN=C(c1ccc3c(c1)CCC3)c1cccn1-2 [Compound 20, 7-chloro-4-(2,3-dihydro-1H-inden-5-yl)-6H-pyrrolo[1,2-a][1,4]benzodiazepine]
> 64600 | > 64600 | 25100 | > 64600 |  | 1950 | 3890 | > 64600 |  | 214 to 217 °C |  |  | O=C1CCc2ccc(C3=NCc4c(Cl)cccc4-n4cccc43)cc21 [Compound 55, 6-(7-chloro-6H-pyrrolo[1,2-a][1,4]benzodiazepin-4-yl)-2,3-dihydro-1H-inden-1-one]

Continued, compound first:

Structure (SMILES) | IC50 [1] [nM] | IC50 [2] [nM] | IC50 [3] [nM] | IC50 [4] [nM] | IC50 [5] [nM] | IC50 [6] [nM] | IC50 [7] [nM] | IC50 [8] [nM] | IC50 [9] [nM] | melting point | IC50 [10] [nM] | IC50 [11] [nM]
CN1C(=O)C(C)(C)c2cc(C3=NCc4c(Cl)cccc4-n4cccc43)ccc21 [Compound 1, 5-(7-chloro-6H-pyrrolo[1,2-a][1,4]benzodiazepin-4-yl)-1,3-dihydro-1,3,3-trimethyl-2H-indol-2-one] | > 64600 | 2240 | 26300 | > 64600 |  | 7940 | 9330 | 4270 |  | 233.7 to 235.1 °C |  | 
Clc1ccc(Cl)c2c1CN=C(c1ccc3c(c1)CCC3)c1cccn1-2 [Compound 24, 7,10-dichloro-4-(2,3-dihydro-1H-inden-5-yl)-6H-pyrrolo[1,2-a][1,4]benzodiazepine] | > 32400 | > 32400 | 6030 | > 32400 |  | 3980 | 8910 | > 32400 |  | 194 to 194.2 °C |  | 
O=C1CCCc2cc(C3=NCc4ccc(Cl)cc4-n4cccc43)ccc21 [Compound 60, 6-(9-chloro-6H-pyrrolo[1,2-a][1,4]benzodiazepin-4-yl)-3,4-dihydro-1 (2H)-naphthalenone] | 3630 | > 64600 | > 64600 | 30200 |  | > 64600 | > 64600 | 7080 |  | > 280 °C |  | 
Clc1ccc2c(c1Cl)CN=C(c1ccc3c(c1)CCC3)c1cccn1-2 [Compound 22, 7,8-dichloro-4-(2,3-dihydro-1H-inden-5-yl)-6H-pyrrolo[1,2-a][1,4]benzodiazepine] | > 32400 | 14100 |  | > 32400 |  | 1000 | 3020 | 2510 |  | 199.3 to 201.6 °C |  | 
Clc1cc(Cl)c2c(c1)CN=C(c1ccc3c(c1)CCC3)c1cccn1-2 [Compound 25, 8,10-dichloro-4-(2,3-dihydro-1H-inden-5-yl)-6H-pyrrolo[1,2-a][1,4]benzodiazepine] | > 64600 | 155 | 380 | 2000 | > 64600 | 794 | 832 | 1000 | 39800 | 178.5 to 180.2 °C | > 64600 | 
O=C1OCc2ccc(C3=NCc4c(Cl)cc(Cl)cc4-n4cccc43)cc21 [Compound 64, 6-(7,9-dichloro-6H-pyrrolo[1,2-a][1,4]benzodiazepin-4-yl)-1 (3H)-isobenzofuranone] | > 64600 | > 64600 | > 64600 | > 64600 |  | > 64600 | > 64600 | > 64600 |  | 210.5 to 212 °C |  | 
Clc1cccc2c1-n1cccc1C(c1ccc3c(c1)CCCO3)=NC2 [Compound 43, 10-chloro-4-(3,4-dihydro-2H-1-benzopyran-6-yl)-6H-pyrrolo[1,2-a][1,4]benzo-diazepine] | 4370 | 141 | 219 | 912 |  | 129 | 158 | 209 |  | 103.7 °C |  | 
